Experimental findings from patent publication US4620871A (priority 1980, dated 1986) are described below.

Assay [1] relates to Alfalfa. The assay can be described thus: Inhibition of the decomposition of chlorophyll in alfalfa. The settings on record: for Chlorophyll content: 200 ppm, 100 mg green plant, control 0.78; for activation at 200 ppm: Medicago sativa, 96 h, read-out: Promotion. As for the experimental part: (§1) Thereafter chlorphyll was extracted from the leaf segments with methanol. To determine the starting state, chlorophyll was extracted with methanol from untreated leaf segments weighing 200 mg. In the control test the leaf segments, weighing 200 mg, were floated on the surface of distilled water for 4 days in the dark, and then chlorophyll was extracted from the leaf segments with methanol. […] For alfalfa and maize the chlorphyll contents of 100 mg of green plant were examined.

Another assay concerns Maize. The assay can be described thus: Inhibition of the decomposition of chlorophyll in maize. The settings on record: for Chlorophyll content: 100 mg green plant, control 0.65; for activation at 200 ppm: Zea mays, 96 h, read-out: Promotion. As for the experimental part: as §1
Assay [2] has as its system Bean. The assay can be described thus: Stimulation of photosynthesis, 14CO2 incorporation, bean leaf discs (Example 20). Conditions: 2 hours; for activation at 200 ppm: foliar. As for the experimental part:
The specific radioactivities of the stock solutions were determined by liquid scintillation. In the control test untreated leaf discs were exposed to labelled carbon, dioxide, and the amount of carbon dioxide incorporated under such conditions was regarded as standard.

The test system of a further assay is maize leaves. The assay can be described thus: Fixation of 14CO2 in maize leaves (Example 36). Conditions: 18 hours; for Fixation of 14CO2: fresh weight, control 5.72; for Fixation of 14CO2, %: increase over control. As for the experimental part:
(§2) The biological activities of cytokinin-like factors can be well characterized by measuring the intensity of the photosynthetic carbon dioxide fixation and the incorporation of labelled amino acids into the TCA-insoluble protein fraction. The intensity of photosynthetic carbon dioxide fixation was determined on maize leaves, utilizing ^14 CO2, whereas the incorporation of amino acids was examined on bean leaves, utilizing […]-^14 C.

For the next assay, the system named is bean leaves. The assay can be described thus: Incorporation of Gly-2-14C in bean leaves (Example 36). Conditions: 18 hours; for Incorporation of Gly-2-14C: fresh weight, control 3.52; for Incorporation of Gly-2-14C, %: increase over control. As for the experimental part:
as §2

Assay [3] has as its system Alfalfa. The assay can be described thus: Alfalfa field tests 1979, Boly (Example 26). The format is in vivo. The source says: The effects of the compositions according to the invention exerted on the crop yield (green yield), crude protein content, protein nitrogen content and C/N ratio of alfalfa, observed under field conditions in the tests performed in 1979 at the Agricultural Combinate of Boly, Hungary, are listed in Table 17.

In another assay the test system is maize for silage. The assay can be described thus: Maize for silage field tests 1979, Boly (Example 28). The format is in vivo. The source says:
The effects of the cytokinin-like regulators on the crop yield, crude protein content and real protein content of maize for silage, observed under field conditions in the tests performed in 1979 at the Agricultural Combinate of Boly, Hungary, are listed in Table 20.

Another assay deals with hybrid maize. The assay can be described thus: Grain yield of maize (Example 29). The format is in vivo. As to the method: The compositions according to the invention were applied as seed dressing agents onto the sowing-seeds of hybrid maize in a dosis of 0.5 kg/ha. The powdery compositions were wetted with water prior to application. The stand was sprayed three times during the cultivation period: first at the four-leaves development stage with a dosis of 3 kg/ha, then prior to tasseling with a dosis of 1 kg/ha, and finally prior to pollen ripening with a dosis of 2 kg/ha. The crop was evaluated as May shelled corn.

Assay [4] relates to Soybean. The assay can be described thus: Inhibition of the decomposition of chlorophyll in soybean leaf segments. Conditions: 4 days dark. As to the method:
(§3) The active agent to be tested was dissolved in distilled water to form a 200 ppm solution, and leaf segments of the plants under examination, weighing 200 mg, were floated on the surface of the solution for 4 days in the dark. Thereafter chlorphyll was extracted from the leaf segments with methanol.
(§4) To determine the starting state, chlorophyll was extracted with methanol from untreated leaf segments weighing 200 mg. In the control test the leaf segments, weighing 200 mg, were floated on the surface of distilled water for 4 days in the dark, and then chlorophyll was extracted from the leaf segments with methanol.
(§5) The chlorophyll concentration was determined by measuring the extinction of the extracts at 665 mμ.

The test system of assay [5] is Bean. The assay can be described thus: Inhibition of the decomposition of chlorophyll in bean leaf segments. The settings on record: 4 days dark. As to the method: as §3, §4, §5
For the next assay, the system named is soybean leaf segments. The assay can be described thus: Stimulation of the protein level of soybean, glycine-14C incorporation (Example 18). The settings on record: 24 hours. As to the method: The active agent to be tested was dissolved in distilled water to form a 200 ppm solution, and soybean leaf segments, weighing 200 mg, were floated on the surface of the solution for 24 hours. In the control test leaf segments, weighing 200 mg, were floated on the surface of distilled water.
The leaf segments were washed with distilled water, and then treated for 3 hours with 20 ml of a solution containing labelled amino acid (glycine-^14 C; activity: 2 μCi). After this exposition period the leaf segments were washed with an aboundant amount of water, and the protein content of the leaf segments was isolated in a manner known per se. Stock solution was prepared from the isolated protein, and the specific radioactivity of the solution was determined by liquid scintillation.

Assay [6] concerns Soybean. The assay can be described thus: Total and protein nitrogen content of soybean (Example 39). The assay is classed as in vivo. The source says: The effects of 1,4-dihydroxyphthalazine and salts thereof exerted on the total nitrogen content and protein nitrogen content of soybean were examined as described in Example 27. The plants were sprayed with the compositions according to the invention at the beginning of the flowering of the apical cluster.

As to `Cn1cnc2ccccc21` [N--methyl-benzimidazolium bromide], in the assay with Alfalfa [1], the Chlorophyll content is reported as 0.83 mg and the activation at 200 ppm is 6.4%. For the same compound, the Chlorophyll content in the assay on Maize (200 ppm) amounted to 0.80 mg. Besides, the activation at 200 ppm with Maize stood at 23%. The compound further yielded an activation at 200 ppm in the assay with Bean [2] of 125%. In the assay on maize leaves, the “Fixation of 14CO2” value stood at 8.12 μCi/g and the “Fixation of 14CO2, %” value is 42%. In the assay with bean leaves, the “Incorporation of Gly-2-14C” value is 4.75 μCi/g and the “Incorporation of Gly-2-14C, %” value is on record as 35%.
In turn, N--bromoethyl-benzimidazolium bromide registered a Chlorophyll content in the assay on Alfalfa [1] of 0.64 mg. In the assay on Maize (200 ppm), this compound registered a Promotion of 9.2% and a Chlorophyll content of 0.71 mg. Besides, the “Stimulation (14CO2 incorporation)” value with Bean [2] (200 ppm) is listed as 57%. In addition, in the assay with maize leaves, the “Fixation of 14CO2” value is given as 6.46 μCi/g and the “Fixation of 14CO2, %” value was 13%. In the assay with bean leaves, the “Incorporation of Gly-2-14C” value is reported as 4.36 μCi/g and the “Incorporation of Gly-2-14C, %” value is given as 24%.
`CCn1cnc2ccccc21` [N--ethyl-benzimidazolium bromide]: in the assay with Alfalfa [1], the Chlorophyll content stood at 0.85 mg and the activation at 200 ppm was 8.9%. This compound displayed a Chlorophyll content in the assay on Maize (200 ppm) of 0.79 mg. The activation at 200 ppm in the assay on Maize stood at 21.5%. This compound came in with an activation at 200 ppm in the assay on Bean [2] of 184%. In the assay on maize leaves, the “Fixation of 14CO2” value stood at 6.72 μCi/g and the “Fixation of 14CO2, %” value is listed as 18%. For the same compound, in the assay with bean leaves, the “Incorporation of Gly-2-14C” value is 4.25 μCi/g and the “Incorporation of Gly-2-14C, %” value is reported as 21%.
Take `CC(C)[n+]1c[nH]c2ccccc21.[Cl-]` [N--Isopropyl-benzimidazolium chloride, N-isopropyl-benzimidazolium chloride]: in the assay with Alfalfa [3] (control 5.31), the C/N ratio is recorded as 4.20. Moreover, the P2O5 content with Alfalfa [3] (control 8.3) was 10.9 % of dry substance. Besides, in the assay on Alfalfa [3] (control 21.3), the Crude protein content is on record as 25.8 % of dry substance. In the assay with Alfalfa [3] (control 120), this compound registered a Green yield of 142 q/ha. For the same compound, in the assay on Alfalfa [3] (in vivo), the “C/N ratio, decrease” value is on record as 21.0%; the “Crude protein content, increase” value is given as 21.5%; the “Green yield, increase” value stood at 18.7%; the “P2O5 content, increase” value is 31.7%. Besides, in the assay on maize for silage (control 7.5), the P2O5 content is 9.8 % of dry substance. Moreover, in the assay with maize for silage (control 13.2), the Crude protein content is listed as 17.1 % of dry substance. Also, the C/N ratio in the assay with maize for silage (control 31.4) was 23.5. Moreover, the Green weight with maize for silage (control 310.2) is given as 398.2 q/ha. Moreover, in the assay on maize for silage (in vivo), the “C/N ratio, decrease” value came out at 25.4%; the “Crude protein content, increase” value is 29.7%; the “Green weight, increase” value stood at 28.4%; the “P2O5 content, increase” value is on record as 30.8%. Also, the “Grain yield, increase” value with hybrid maize (in vivo) was determined as 57.1%. Moreover, the Grain yield with hybrid maize (seed dressing 0.5 kg/ha + sprays 3, 1, 2 kg/ha, control 132.8) is on record as 208.5 q/ha. Moreover, in the assay with maize leaves, the “Fixation of 14CO2” value is recorded as 10.92 μCi/g and the “Fixation of 14CO2, %” value was determined as 92%. Besides, in the assay on bean leaves, the “Incorporation of Gly-2-14C” value was 4.85 μCi/g and the “Incorporation of Gly-2-14C, %” value was 35%.
For the compound `Oc1nnc(O)c2ccccc12` [1,4-Dihydroxyphthalazine], the Chlorophyll in the assay on Soybean [4] (200 ppm, control 3.5) came to 4.2 mg; in the assay on Bean [5] (200 ppm, control 4.2) it was 5.8 mg. The activation at 200 ppm stood at 20% with Soybean [4] (Glycine max, foliar, 96 h, read-out: Promotion); 38% in the assay with Bean [5] (foliar, 96 h, read-out: Promotion); 35.3% in the assay on soybean leaf segments (Glycine max). The Radioactivity with soybean leaf segments (200 ppm, control 11.9) was determined as 16.1 mu Ci/100 mg. In addition, the Protein nitrogen content with Soybean [6] (control 1.9) is reported as 3.8 % of dry substance. Further, in the assay on Soybean [6] (control 2.6), the Total nitrogen content is recorded as 4.6 % of dry substance. In addition, the “Protein nitrogen content, increase” value in the assay with Soybean [6] (in vivo) amounted to 100.0%. Also, in the assay with Soybean [6] (in vivo), the “Total nitrogen content, increase” value turned out to be 77.0%.
